Results: patent publication US20040138301A1, “Chemical uncouplers for the treatment of obesity” (priority 2002, published 2004)
Read-outs that look alike come from different tables or passages of the source.

Assays:
HEP-G2 cells = assay: cells; settings: Homo sapiens
Protocol: Assay (I): Glucose utilisation in a human hepatocytes cell line (HEP-G2 cells)
The assay measures indirectly the activity of the respiratory chain in HEP-G2 cells by using D-(3-^3H(N))-glucose. The ^3H-proton will first be released during the metabolism of glucose where it will be incorporated into water. The water is thereafter separated from the D-(3-^3H(N))-glucose by evaporation. Finally, the radioactivity in the water is determined using a Topcounter.
HEP-G2 cells obtained from ATCC (Maryland, USA), are cultured in assay medium (MEM medium) with the following addition 1× non-essential amino acids (M7145, 2 mM glutamine, 100 units/ml penicillin and streptomycin, 0.0075% sodium bicarbonate, 1 mM sodium pyrovate and 0.5% BSA (Bovin Serum Albumin, Sigma Missouri, USA)) at 37° C. and 5% CO2. All media are obtained by Gibco (Life Technologies, Maryland, USA) where not otherwise mentioned.
At day zero the cells are harvested using trypsin-EDTA and washed in assay medium using centrifugation. […] The cells are then incubated at 37° C. and 5% CO2 overnight.
(§1) The next day the compounds to be tested are diluted in DMSO (Sigma, Missouri, USA) to 100 times final concentration. They are then diluted to a final concentration in assay medium containing 10 μCi/ml D-(3-^3H(N))-glucose (PerkinElmer Life Sciences Inc., Boston, USA). The medium is removed from the cells and 200 μl of the compound dilutions are added in duplicates. The cells are then incubated for another 3 hours at 37° C. and 5% CO2. Finally the cells are lysed by adding 50 μl 10% TCA (trichloroacetic acid). 300 μl of sterile water is then added to the 24-wells that surrounds the StripPlate wells. The plate is sealed with Top-seal-tape (Packard, PerkinElmer Life Sciences Inc., Boston, USA) and the plate is incubated in a heating cupboard at 50° C. to equilibrium the radioactive water formed in the respiratory chain into the water in the 24-well plate by evaporate. The plates incubate for 8 hours where the heating cupboard is turned off. The top seal is removed when the samples have reached room temperature. One ml scintillation liquid (Packard Microscient, PerkinElmer Life Sciences Inc., Boston, USA) is added to all the samples and the radioactivity is determined using a Topcounter (Packard, PerkinElmer Life Sciences Inc., Boston, USA). Non-specific activity is determined by evaporating 200 μl of the dilution medium containing the D-(3-^3H(N))-glucose into 300 μl sterile water, and total radioactivity is determined by counting 5 μl assay medium with 10 μCi/ml D-(3-^3H(N))-glucose.
The cpm (counts per minute) representing the non-specific radioactivity in the D-(3-^3H(N))-glucose is subtracted from all incubated values. Then mean basal value (samples without any compound added) is subtracted from the values of all stimulated samples (samples added different concentrations of the different test compounds). All these calculations are done using GraphPad Prism 3.0 (GraphPad software, Inc.). The maximal stimulation caused by the test compounds is calculated in percentage of maximal stimulation caused by either DNP or FCCP.
When calculating the concentration-response curve the maximal glucose utilisation stimulated by FCCP or DNP (subtracted non-specific and basal values) is converted to 100% and all the other values are expressed in percentage of this value. Using these percentage values and the compound concentration a concentration-response curve is calculated using sigmoidal dose-response (variable slope) equation (all the calculations are done by GraphPad Prism 3.0 (GraphPad software, Inc.));
Y=Bottom+(Top−Bottom)/(1+10^((LogEC50-X)*slope))
(§2) X is the logarithm of the molar concentration of the test compound.
Y is the degree of stimulation caused by the compound measured as a percentage of the maximal stimulation achieved by use of FCCP or DNP.
The results achieved with these concentrations are used to determine the slope in this area using the following equation: […]

FSK-4 cells = assay: Assay (IV): Glucose utilisation in FSK-4 cells; type: cell-based; settings: for EC50: read-out: FSK4 EC50; for Emax: read-out: FSK4 Emax (% of FCCP)
Protocol: Assay (IV): Glucose Utilisation in FSK-4 Cells
The assay measures indirectly the activity of the respiratory chain in FSK-4 cells by using D-(6-^3H(N))-glucose. The ^3H-proton will first be released in the TCA cyclus and transported to the respiratory chain where it will be incorporated into water. The water is thereafter separated from the D-(6-^3H(N))-glucose by evaporation. Finally, the radioactivity in the water is determined using a Topcounter.
FSK-4 cells obtained from ATCC (Maryland, USA), are cultured in growth medium (McCoy's medium with the following addition 100 units/ml penicillin and streptomycin and 10% FCS (fetal calf serum)) at 37° C. and 5% CO2. All media are obtained by Gibco (Life Technologies, Maryland, USA) where not otherwise mentioned.
At day zero the cells are harvested using trypsin-EDTA and washed in assay medium (MEM medium with the following addition 1× non-essential amino acids (M7145, 2 mM glutamin, 100 units/ml pencillin and streptomycin, 0.0075% sodium bicarbonate, 1 mM sodium pyrovate and 2% horse serum) using centrifugation. The cells are plated into single StripPlates wells (Corning B.V.Life Sciences, The Netherlands) that are placed into 24-well plates (Corning B.V.Life Sciences, The Netherlands) with a concentration of 1,5×10^4 cells/100 μl assay medium/well. The cells are then incubated at 37° C. and 5% CO2 overnight.
as §1, with “are diluted to different concentrations in DMSO” for “are diluted in DMSO”, “10 μCi/ml D-(6-^3H(N))-glucose (PerkinElmer Life” for “10 μCi/ml D-(3-^3H(N))-glucose (PerkinElmer Life”, “for another 24 hours at” for “for another 3 hours at”, “10% TCA (tri-chloroacetatic acid). 300” for “10% TCA (trichloroacetic acid). 300”, “containing the D-(6-^3H(N))-glucose into 300” for “containing the D-(3-^3H(N))-glucose into 300”, “10 μCi/ml D-(6-^3H(N))-glucose.” for “10 μCi/ml D-(3-^3H(N))-glucose.”
All calculations are done using GraphPad Prism 3.0 (GraphPad software, Inc.) From concentration-response curves the half maximal concentration (EC50) and maximal efficacy (Emax) are calculated using equation 1.
Y=Bottom+(Top−Bottom)/(1+10^((LogEc50-X)*slope))
as §2
Y is the degree of stimulation caused by the compound measured as percentage of the basal stimulation.
The calculated EC50 value is then used to determine the concentrations used in a study where the Hill slope is calculated.
From the double logarithmic plot of the increase in glucose utilisation and the compound concentration the Hill slope is calculated accordingly to equation 2.
It is presumed, that the maximal increase in the glucose utilisation (as measured in the FSK-4 glucose utilisation assay) is limited by the capacity of the metabolism.

[1] = FSK-4 cells, glucose utilisation, 24 hours incubation
[2] = FSK-4 cells, maximal efficacy relative to FCCP

| Structure (SMILES) | EC50 (FSK-4 cells; [1]) | Emax (FSK-4 cells; [2]) | other results |
| --- | --- | --- | --- |
| Cc1c(Cl)cc(C(C)(C)C)c(O)c1C(=O)Nc1ccc([N+](=O)[O-])cc1Cl [Example 5, 3-Tert-Butyl-5-Chloro-N-(2-Chloro-4-Nitrophenyl)-2-Hydroxy-6-Methyl-Benzamide] | 0.1 µM | 100% | EC50 (HEP-G2 cells; HepG2, 3 h, read-out: HEP-G2 EC50, HEP-G2 cells, glucose utilisation, 3 hours incubation): 0.06 µM; Emax (HEP-G2 cells; HepG2, read-out: HEP-G2 Emax (% of FCCP), HEP-G2 cells, maximal stimulation relative to FCCP): 95%; EC (Emax) (HEP-G2 cells; HepG2, read-out: HEP-G2 Emax (μM), HEP-G2 cells, concentration at which Emax is achieved (CEmax)): 0.3 µM |
| N#CC(C#N)=Cc1c[nH]c2ccc([N+](=O)[O-])cc12 [Example 35, 2-(5-Nitro-1H-Indol-3-Ylmethylene)-Malononitrile] | 5 µM | 50% | – |
| Cc1[nH]c2ccc([N+](=O)[O-])cc2c1C=C(C#N)C#N [Example 36, 2-(2-Methyl-5-Nitro-1H-Indol-3-Ylmethylene)-Malononitrile] | – | – | EC50 (FSK-4 cells; 24 h): 6.35 µM; Emax (FSK-4 cells): 76% |
| CC(C)(C)c1cc(/C=C(\C#N)C(=O)Nc2ccc(Cl)cc2)cc(C(C)(C)C)c1O [Example 83, N-(4-Chloro-Phenyl)-2-Cyano-3-(3,5-Di-Tert-Butyl-4-Hydroxy-Phenyl)-Acrylamide] | 1.1 µM | 120% | – |
| CC(C)(C)c1cc(/C=C(\C#N)S(C)(=O)=O)cc(C(C)(C)C)c1O [Example 84, (E)-3-(3,5-Di-Tert-Butyl-4-Hydroxy-Phenyl)-2-Methanesulfonyl-Acrylonitrile] | 1.4 µM | – | – |
| CC(C)(C)c1cc(/C=C(\C#N)S(=O)(=O)c2ccc(Cl)cc2)cc(C(C)(C)C)c1O [Example 85, (E)-2-(4-Chloro-Benzenesulfonyl)-3-(3,5-Di-Tert-Butyl-4-Hydroxy-Phenyl)-Acrylonitrile] | 0.8 µM | – | – |
| CC(C)(C)c1cc(/C=C(\C#N)S(=O)(=O)c2ccc(F)cc2)cc(C(C)(C)C)c1O [Example 86, (E)-3-(3,5-Di-Tert-Butyl-4-Hydroxy-Phenyl)-2-(4-Fluoro-Benzenesulfonyl)-Acrylonitrile] | 1 µM | – | – |
| CC(C)(C)c1cc(/C=C(\C#N)S(=O)(=O)c2ccccc2)cc(C(C)(C)C)c1O [Example 87, (E)-2-Benzenesulfonyl-3-(3,5-Di-Tert-Butyl-4-Hydroxy-Phenyl)-Acrylonitrile] | 0.7 µM | – | – |
| CC(C)S(=O)(=O)/C(C#N)=C/c1cc(C(C)(C)C)c(O)c(C(C)(C)C)c1 [Example 88, (E)-3-(3,5-Di-Tert-Butyl-4-Hydroxy-Phenyl)-2-(Propane-2-Sulfonyl)-Acrylonitrile] | 0.5 µM | – | – |
| CC(C)(C)c1cc(/C=C(\C#N)S(=O)(=O)c2cc(Cl)ccc2Cl)cc(C(C)(C)C)c1O [Example 89, 3-(3,5-Di-Tert-Butyl-4-Hydroxy-Phenyl)-2-(2,5-Dichloro-Benzenesulfonyl)-Acrylonitrile] | 0.5 µM | – | – |
| CC(C)(C)c1cc(/C=C(\C#N)S(=O)(=O)c2ccc(Cl)cc2Cl)cc(C(C)(C)C)c1O [Example 90, 3-(3,5-Di-Tert-Butyl-4-Hydroxy-Phenyl)-2-(2,4-Dichloro-Benzenesulfonyl)-Acrylonitrile] | 0.6 µM | – | – |
| CCCCCCS(=O)(=O)/C(C#N)=C/c1cc(C(C)(C)C)c(O)c(C(C)(C)C)c1 [Example 91, 3-(3,5-Di-Tert-Butyl-4-Hydroxy-Phenyl)-2-(Hexane-1-Sulfonyl)-Acrylonitrile] | 3.8 µM | – | – |
| CC(C)(C)c1cc(/C=C(\C#N)S(=O)(=O)c2ccc(Br)cc2)cc(C(C)(C)C)c1O [Example 92, 2-(4-Bromo-Benzenesulfonyl)-3-(3,5-Di-Tert-Butyl-4-Hydroxy-Phenyl)-Acrylonitrile] | 1 µM | – | – |
| CC(C)(C)c1cc(/C=C(\C#N)S(=O)(=O)c2cccc(Br)c2)cc(C(C)(C)C)c1O [Example 93, 2-(3-Bromo-Benzenesulfonyl)-3-(3,5-Di-Tert-Butyl-4-Hydroxy-Phenyl)-Acrylonitrile] | 0.1 µM | – | – |
| CC(C)(C)c1cc(Br)cc(C(=O)Nc2ccc(C#N)cc2Cl)c1O [Example 94, 5-Bromo-3-Tert-Butyl-N-(2-Chloro-4-Cyanophenyl)-2-Hydroxybenzamide] | 0.1 µM | 90% | – |
| Cc1c(Br)cc(C(C)(C)C)c(O)c1C(=O)Nc1ccccc1C(F)(F)F [Example 96, 3-Bromo-5-Tert-Butyl-6-Hydroxy-2-Methyl-N-(2-Trifluoromethylphenyl)Benzamide] | 20 µM | 40% | – |
| N#CC(C#N)=Cc1c(Br)[nH]c2ccccc12 [Example 97, 2-(2-Bromo-1H-Indol-3-Ylmethylene)Malononitrile] | 1.5 µM | 55% | – |
| Cc1[nH]c2c(Br)cccc2c1C=C(C#N)C#N [Example 98, 2-(7-Bromo-2-Methyl-1H-Indol-3-Ylmethylene)Malononitrile] | 6.6 µM | 105% | – |
| Cc1[nH]c2ccc(Br)cc2c1C=C(C#N)C#N [Example 99, 2-(5-Bromo-2-Methyl-1H-Indol-3-Ylmethylene)Malononitrile] | 1.7 µM | 40% | – |
